Experiment: In vitro liver microsomal stability assay
Format: in vitro ADME
Settings: 1 mg per mL liver microsome protein, NADPH-generating system, 5 microgram per mL test compound, about 37° C., 0-60 minutes, LC/MS/MS
Method: Liver microsomal stability assays were conducted at 1 mg per mL liver microsome protein with an NADPH-generating system in 2% NaHCO3 (2.2 mM NADPH, 25.6 mM glucose 6-phosphate, 6 units per mL glucose 6-phosphate dehydrogenase and 3.3 mM MgCl2). Test compounds were prepared as solutions in 20% acetonitrile-water and added to the assay mixture (final assay concentration 5 microgram per mL) and incubated at about 37° C. Final concentration of acetonitrile in the assay should be <1%. Aliquots (50 μL) were taken out at times 0, 15, 30, 45, and 60 minutes, and diluted with ice cold acetonitrile (200 μL) to stop the reactions. Samples were centrifuged at 12,000 RPM for about 10 minutes to precipitate proteins. Supernatants were transferred to microcentrifuge tubes and stored for LC/MS/MS analysis of the degradation half-life of the test compounds.

Which “degradation half-life as compared to the non-isotopically enriched compound” value does the source give for `Cl.[2H]C([2H])([2H])C(NC(C)C(=O)c1cccc(Cl)c1)(C([2H])([2H])[2H])C([2H])([2H])[2H]` (stereo not shown) [Example 2, 2-(tent-d9-Butylamino)-1-(3-chlorophenyl)propan-1-one Hydrochloride] here?
Its value is “improved degradation half-life”.

Source: US20100075950A1, “PHENY[…] DOPAMINE RECEPTOR” (AUSPEX PHARMACEUTICALS, INC., priority 2008, published 2010)
